These results are taken from patent US20250170112A1, “ADENOSINE LIGANDS FOR THE TREATMENT OF NEUROLOGICAL DISORDERS” (Lucy Therapeutics, Inc., priority 2022, published 2025).

Molecules are shown by their SMILES.

The target in assay [1] is T1, human Adenosine A1 receptor (Homo sapiens, UniProt P30542).
T1 construct: host or cells: CHO-K1
T1 sequence (P30542 1-326): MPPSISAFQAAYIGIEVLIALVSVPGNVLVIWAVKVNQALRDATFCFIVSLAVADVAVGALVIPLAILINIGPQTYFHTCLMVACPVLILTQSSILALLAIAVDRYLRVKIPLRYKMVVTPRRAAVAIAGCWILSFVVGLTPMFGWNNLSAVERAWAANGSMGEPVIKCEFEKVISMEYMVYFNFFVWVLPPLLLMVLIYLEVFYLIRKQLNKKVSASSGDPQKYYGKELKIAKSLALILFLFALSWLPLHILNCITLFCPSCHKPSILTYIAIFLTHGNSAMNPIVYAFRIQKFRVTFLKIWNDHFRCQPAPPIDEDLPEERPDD
Nature of the assay: GTPγS scintillation proximity assay, agonist testing. Type of assay: biochemical. To be noted: agonist activity; membrane extracts of CHO-K1 cells expressing recombinant human A1; read-out: A1AR EC50. The method in brief:
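Agonist-stimulated [35S]GTPγS binding to membranes of CHO-K1 cells expressing recombinant human A1 receptor, in 20 mM HEPES pH 7.4, 100 mM NaCl, 10 μg/mL saponin, with receptor-optimized MgCl2 and GDP. GTPγ[35S] 0.1 nM final with WGA SPA beads; 1 h at room temperature, then scintillation counting.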
For orientation: In a scintillation proximity assay essentially only radioactivity close to the scintillant gives light.

Assay [2] concerns the target T2, human A2B (Homo sapiens, UniProt P29275).
T2 construct: expressed in transfected cells; host or cells: HEK293
T2 sequence (P29275 1-332): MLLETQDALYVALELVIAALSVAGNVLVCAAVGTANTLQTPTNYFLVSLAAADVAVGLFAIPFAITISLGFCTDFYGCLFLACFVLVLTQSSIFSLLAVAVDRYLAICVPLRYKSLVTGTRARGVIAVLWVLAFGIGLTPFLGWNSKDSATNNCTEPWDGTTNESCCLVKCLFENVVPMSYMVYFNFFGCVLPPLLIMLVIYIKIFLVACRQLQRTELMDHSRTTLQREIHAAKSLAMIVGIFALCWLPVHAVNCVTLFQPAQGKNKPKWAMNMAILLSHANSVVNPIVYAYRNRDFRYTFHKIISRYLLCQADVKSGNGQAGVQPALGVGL
Nature of the assay: cAMP HTRF assay for Gs coupled receptor, agonist test. The class given is cell-based. To be noted: agonist activity; HEK293 cells expressing recombinant human A2B; read-out: A2BAR EC50. The essentials: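 Recombinant cells were incubated 30 min at room temperature with increasing agonist concentrations. Lysis buffer with cAMP-d2 and anti-cAMP cryptate was added, with 1 h at room temperature before the HTRF fluorescence ratio was read. Reference compounds were run in parallel.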
Background: TR-FRET usually uses a lanthanide donor and a delayed reading to cut background.

As usually defined, the EC50 is the concentration needed to bring the measured effect to its halfway point.

Regarding `N#Cc1c(N)nc(SCC2CCOC2)c(C#N)c1-c1ccc(OC2CCOC2)cc1` (stereo not shown) [Compound 218], the concentration giving a half-maximal response (EC50) in assay [1] was 0.353 µM; in assay [2], > 10 µM.

Consider `N#Cc1c(SCc2cccnn2)nc(C2CC2)c(C#N)c1-c1ccc(OCCOC(F)F)cc1` [Compound 239], for which the EC50 in assay [1] is 0.84 µM; in assay [2], > 10 µM.

Consider `N#Cc1c(N)nc(SCc2cccnc2)c(C#N)c1-c1ccc(O[C@H]2C[C@H](O)C2)cc1` [Compound 295, 2-Amino-4-(4-((1r,3r)-3-hydroxycyclobutoxy)phenyl)-6-((pyridin-3-ylmethyl)thio)pyridine-3,5-dicarbonitrile], for which the half-maximal effective concentration (EC50) in assay [1] is 0.0016 µM; in assay [2], 0.00979 µM.

For the compound `N#Cc1c(N)nc(SCCC(F)(F)F)c(C#N)c1-c1ccc(OC2CCOC2)cc1` (stereo not shown) [Compound 220], the EC50 in assay [1] and in assay [2] was > 10 µM throughout.

For the compound `COc1nc(SCc2cccnc2)c(C#N)c(-c2ccc(OCCO)cc2)c1C#N` [Compound 282], the EC50 in assay [1] is 0.0615 µM; in assay [2], 0.02 µM.

Take `CNC(=O)CSc1nc(N)c(C#N)c(-c2ccc(OCCOC)cc2)c1C#N` [Compound 146]: the half-maximal effective concentration (EC50) was determined as 0.177 µM in assay [1] and 0.059 µM in assay [2].

As for `N#Cc1c(SCC2COC2)nc(N2CCCC2)c(C#N)c1-c1ccc(OC2COC2)cc1` [Compound 292], the EC50 is 0.093 µM in assay [1] and > 10 µM in assay [2].

`COCCOc1ccc(-c2c(C#N)c(SCc3cnccn3)nc(N3CCC3)c2C#N)cc1` [Compound 21]: the figures for the EC50 in assay [1] and in assay [2] were 3.52 µM and > 10 µM, respectively.

Take `N#CCCSc1nc(N)c(C#N)c(-c2ccc(OCCO)cc2)c1C#N` [Compound 121]: the concentration giving a half-maximal response (EC50) came to 0.327 µM in assay [1] and 0.576 µM in assay [2].

As for `N#Cc1c(N)nc(SCc2cccnc2)c(C#N)c1-c1ccc(OCC(O)C(F)(F)F)cc1` (stereo not shown) [Compound 65], the half-maximal effective concentration (EC50) in assay [1] amounted to 0.309 µM; in assay [2], 0.0019 µM.

As to `N#Cc1c(N)nc(SCC2OCCO2)c(C#N)c1-c1ccc(OC2COC2)cc1` [Compound 304], the concentration giving a half-maximal response (EC50) was 0.167 µM in assay [1] and > 10 µM in assay [2].

As to `CN(C)CCSc1nc(N)c(C#N)c(-c2ccc(OCCO)cc2)c1C#N` [Compound 132], the EC50 was > 10 µM in assay [1] and 0.645 µM in assay [2].

On to `CNCCSc1nc(N)c(C#N)c(-c2ccc(OCCOC)cc2)c1C#N` [Compound 140], for which the figures for the EC50 in assay [1] and in assay [2] were 7.5 µM and > 10 µM, respectively.

For the compound `COCCOc1ccc(-c2c(C#N)c(N)nc(SCc3ccccc3)c2C#N)cc1` [Compound 152], the EC50 in assay [1] was 0.092 µM; in assay [2], > 10 µM.

Regarding `COCCOc1ccc(-c2c(C#N)c(N)nc(SCc3ccnnc3)c2C#N)cc1` [Compound 194], the EC50 in assay [1] is 0.071 µM; in assay [2] it was > 10 µM.

Regarding `COc1nc(SCC2COC2)c(C#N)c(-c2ccc(OCCO)cc2)c1C#N` [Compound 281], the concentration giving a half-maximal response (EC50) in assay [1] is 0.827 µM; in assay [2], > 10 µM.

Regarding `CNCCSc1nc(N)c(C#N)c(-c2ccc(OCCO)cc2)c1C#N` [Compound 128], the EC50 in assay [1] was > 10 µM; in assay [2], 0.255 µM.

With `COCCOc1ccc(-c2c(C#N)c(N)nc(SCc3ccc4ccoc4c3)c2C#N)cc1` [Compound 213], the EC50 in assay [1] and in assay [2] was > 10 µM in each case.

Regarding `N#Cc1c(N)nc(SCc2cccc(OC(F)(F)F)c2)c(C#N)c1-c1ccc(OC2COC2)cc1` [Compound 29], the EC50 was found to be 0.079 µM in assay [1] and 6.12 µM in assay [2].

`COCCOc1ccc(-c2c(C#N)c(N)nc(SCCC#N)c2C#N)cc1` [Compound 122]: the results for the concentration for a half-maximal effect (EC50) in assay [1] and in assay [2] were 1.02 µM and > 10 µM, respectively.

On to `N#Cc1c(N)nc(SCC(N)=O)c(C#N)c1-c1ccc(OCCO)cc1` [Compound 129], for which the EC50 in assay [1] is 0.121 µM; in assay [2] it was 0.006 µM.

Regarding `N#Cc1c(N)nc(SCCO)c(C#N)c1-c1ccc(OCCO)cc1` [Compound 177], the concentration for a half-maximal effect (EC50) in assay [1] came to 0.057 µM; in assay [2], 0.018 µM.

With `N#Cc1c(N)nc(NCc2cccnc2)c(C#N)c1-c1ccc(OCCO)cc1` [Compound 161], the results for the EC50 in assay [1] and in assay [2] were 0.368 µM and 0.159 µM, respectively.

`COCCOc1ccc(-c2c(C#N)cnc(SCC3COC3)c2C#N)cc1` [Compound 64]: the figures for the concentration giving a half-maximal response (EC50) in assay [1] and in assay [2] were 0.281 µM and > 10 µM, respectively.

As to `CCOCCSc1nc(N)c(C#N)c(-c2ccc(OC3COC3)cc2)c1C#N` [Compound 17], the EC50 was 0.0991 µM in assay [1] and 5.95 µM in assay [2].

For `CNc1nc(SCC2COC2)c(C#N)c(-c2ccc(OC3COC3)cc2)c1C#N` [Compound 314], the EC50 in assay [1] was 0.00516 µM; in assay [2] it was > 10 µM.

With `COCCOc1ccc(-c2c(C#N)c(N)nc(SCC(C)O)c2C#N)cc1` (stereo not shown) [Compound 127], the EC50 in assay [1] was 0.091 µM; in assay [2], > 10 µM.

`COCCOc1ccc(-c2c(C#N)c(N)nc(SCc3cccc4c3CCO4)c2C#N)cc1` [Compound 212]: the values for the half-maximal effective concentration (EC50) in assay [1] and in assay [2] were 7.6 µM and > 10 µM, respectively.

Take `COCCOc1ccc(-c2c(C#N)c(SCCO)nc(N3CCC3)c2C#N)cc1` [Compound 89]: the EC50 in assay [1] is 0.819 µM; in assay [2] it was > 10 µM.

Turning to `Cc1ccc(CSc2nc(N3CCC3)c(C#N)c(-c3ccc(OCCO)cc3)c2C#N)c(C)n1` [Compound 74], the EC50 was > 10 µM in assay [1] and 8.1 µM in assay [2].

Regarding `CC(O)COc1ccc(-c2c(C#N)c(SCc3cccnc3)nc(N3CCC3)c2C#N)cc1` (stereo not shown) [Compound 53, 2-(azetidin-1-yl)-4-[4-(2-hydroxypropoxy)phenyl]-6-(3-pyridylmethylsulfanyl)-pyridine-3,5-dicarbonitrile], the concentration for a half-maximal effect (EC50) in assay [1] turned out to be 0.0072 µM; in assay [2], 0.0007 µM.

For `N#Cc1cnc(SCC2COC2)c(C#N)c1-c1ccc(OCCO)cc1` [Compound 61, 4-[4-(2-hydroxyethoxy)phenyl]-2-(oxetan-3-ylmethythio)pyridine-3,5-dicarbonitrile], the EC50 is 0.62 µM in assay [1] and > 10 µM in assay [2].

As to `N#Cc1c(N)nc(SCC2CCCOC2)c(C#N)c1-c1ccc(OCCO)cc1` (stereo not shown) [Compound 13], the EC50 in assay [1] was > 10 µM; in assay [2] it was 0.272 µM.

On to `COCC(F)(F)Oc1ccc(-c2c(C#N)c(N)nc(SCc3cccnc3)c2C#N)cc1` [Compound 306], for which the figures for the concentration for a half-maximal effect (EC50) in assay [1] and in assay [2] were 0.353 µM and > 10 µM, respectively.

Regarding `COCC(F)(F)Oc1ccc(-c2c(C#N)c(N)nc(SCC3COC3)c2C#N)cc1` [Compound 310], the EC50 in assay [1] and in assay [2] was > 10 µM in each case.

Turning to `N#Cc1c(N)nc(OCCC2COC2)c(C#N)c1-c1ccc(OC2COC2)cc1` [Compound 307], the EC50 in assay [1] and in assay [2] was > 10 µM in each case.

`N#Cc1c(N)nc(SCc2cnccn2)c(C#N)c1-c1ccc(OCCO)cc1` [Compound 172]: the results for the EC50 in assay [1] and in assay [2] were 0.012 µM and 0.0039 µM, respectively.

In the case of `Cc1ncccc1CSc1nc(N2CCC2)c(C#N)c(-c2ccc(OCCO)cc2)c1C#N` [Compound 77], the EC50 was > 10 µM in assay [1] and 2.23 µM in assay [2].

`CN(C)c1nc(SCC2COC2)c(C#N)c(-c2ccc(OC3COC3)cc2)c1C#N` [Compound 318]: the values for the 50% effective concentration (EC50) in assay [1] and in assay [2] were 0.0321 µM and > 10 µM, respectively.

Consider `COCCOc1ccc(-c2c(C#N)c(N)nc(SCc3ccncc3)c2C#N)cc1` [Compound 197], for which the concentration giving a half-maximal response (EC50) in assay [1] is 0.052 µM; in assay [2], > 10 µM.

As for `COCCOc1ccc(-c2c(C#N)cnc(SCCO)c2C#N)cc1` [Compound 94], the 50% effective concentration (EC50) was 1.01 µM in assay [1] and > 10 µM in assay [2].
